# Target: T1, Androgen receptor (AR) (Homo sapiens, UniProt P10275, T878A)
# T1 construct: 5.5×10^5 LNCap cells were injected into each well of a 6-well plate; endogenous in cells; host or cells: LNCaP
# T1 sequence (P10275 1-920 T878A): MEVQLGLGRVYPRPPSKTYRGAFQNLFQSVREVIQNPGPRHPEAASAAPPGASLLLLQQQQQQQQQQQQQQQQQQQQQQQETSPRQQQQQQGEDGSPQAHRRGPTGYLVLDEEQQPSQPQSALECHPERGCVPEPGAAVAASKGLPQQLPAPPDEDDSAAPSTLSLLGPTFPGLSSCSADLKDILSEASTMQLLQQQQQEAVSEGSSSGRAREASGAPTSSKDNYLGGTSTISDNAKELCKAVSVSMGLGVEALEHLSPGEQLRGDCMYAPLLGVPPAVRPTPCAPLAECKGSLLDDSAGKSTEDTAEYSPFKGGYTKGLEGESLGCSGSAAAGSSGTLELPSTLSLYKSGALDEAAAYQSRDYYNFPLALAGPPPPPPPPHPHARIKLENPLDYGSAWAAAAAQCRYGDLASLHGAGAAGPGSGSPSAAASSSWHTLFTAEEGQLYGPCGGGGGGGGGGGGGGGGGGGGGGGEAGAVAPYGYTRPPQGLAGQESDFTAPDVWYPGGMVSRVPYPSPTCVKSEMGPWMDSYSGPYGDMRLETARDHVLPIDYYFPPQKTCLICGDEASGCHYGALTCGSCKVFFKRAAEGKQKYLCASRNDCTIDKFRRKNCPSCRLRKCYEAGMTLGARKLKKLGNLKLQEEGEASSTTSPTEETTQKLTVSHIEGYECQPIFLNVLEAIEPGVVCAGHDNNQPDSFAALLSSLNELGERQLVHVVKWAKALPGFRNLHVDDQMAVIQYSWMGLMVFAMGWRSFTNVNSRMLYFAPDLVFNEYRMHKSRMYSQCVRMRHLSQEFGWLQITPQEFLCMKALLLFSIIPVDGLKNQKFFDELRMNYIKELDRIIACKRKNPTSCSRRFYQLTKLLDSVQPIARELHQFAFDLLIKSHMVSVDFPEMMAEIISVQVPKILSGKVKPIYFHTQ
# Assay: Assessment of AR proteolytic activity (Western blotting of LNCap cell lysates)
# Format: cell-based
# Conditions: 24 hours of treatment, Western blotting quantified with Image J
# Experimental: Assessment of AR Proteolytic Activity
# Androgen receptor (AR) proteolytic activity of the compound according to the present invention was evaluated as follows: Specifically, 5.5×10^5 LNCap cells were injected into each well of a 6-well plate. […] After 24 hours of treatment, cells were collected and lysed using RIPA Lysis buffer (50 mM Tris-HCl, pH7.5, 150 mM NaCl, 1% Triton X-100, 2 mM EDTA, 0.1% SDS, 0.5% sodium deoxycholate and protease inhibitor cocktail) to make cell lysates. Western blotting was performed, and the results were quantified using Image J program.
row,Molecule,"Degradation (1 μM treated in LNCaP, % AR remaining)"
1,"N-((1r,3r)-3-(3-chloro-4-cyanophenoxy)-2,2,4,4-tetramethylcyclobutyl)-4-(4-(1-(3-(2,6-dioxopiperidin-3-yl)-4-oxo-3,4-dihydrobenzo[d][1,2,3]triazin-6-yl)azetidine-3-carbonyl)piperazin-1-yl)benzamide [Example 44]",3.7%
2,"N#Cc1ccc(O[C@H]2CC[C@H](NC(=O)c3ccc(N4CCC(CN5CC6(CCN(c7ccc8nnn(C9CCC(=O)NC9=O)c(=O)c8c7)CC6)C5)CC4)nc3)CC2)cc1Cl (stereo partly shown) [Example 168, N-((1r,4r)-4-(3-chloro-4-cyanophenoxy)cyclohexyl)-6-(4-((7-(3-(2,6-dioxopiperidin-3-yl)-4-oxo-3,4-dihydrobenzo[d][1,2,3]triazin-6-yl)-2,7-diazaspiro[3.5]nonan-2-yl)methyl)piperidin-1-yl)nicotinamide]",10%
3,"CC1(C)C(NC(=O)c2ccc(N3CCC4(CC3)CN(CC3CCN(c5ccc6nnn(C7CCC(=O)NC7=O)c(=O)c6c5)CC3)C4)nc2)C(C)(C)C1Oc1ccc(C#N)c(Cl)c1 (stereo not shown) [Example 174, N-((1r,3r)-3-(3-chloro-4-cyanophenoxy)-2,2,4,4-tetramethylcyclobutyl)-6-(2-((1-(3-(2,6-dioxopiperidin-3-yl)-4-oxo-3,4-dihydrobenzo[d][1,2,3]triazin-6-yl)piperidin-4-yl)methyl)-2,7-diazaspiro[3.5]nonan-7-yl)nicotinamide]",15%
4,"CC1(C)[C@H](NC(=O)c2ccc(N3CC[C@H](CN4CC5(C4)CN(c4ccc6c(=O)n(C7CCC(=O)NC7=O)nnc6c4)C5)C3)nc2)C(C)(C)[C@H]1Oc1ccc(C#N)c(Cl)c1 (stereo partly drawn) [Example 190, N-((1r,3R)-3-(3-chloro-4-cyanophenoxy)-2,2,4,4-tetramethylcyclobutyl)-6-((3R)-3-((6-(3-(2,6-dioxopiperidin-3-yl)-4-oxo-3,4-dihydrobenzo[d][1,2,3]triazin-7-yl)-2,6-diazaspiro[3.3]heptan-2-yl)methyl)pyrrolidin-1-yl)nicotinamide]",11%
5,"CC1(C)C(NC(=O)c2ccc(C#CCN3CC4(CCN(c5ccc6c(=O)n(C7CCC(=O)NC7=O)nnc6c5)CC4)C3)nc2)C(C)(C)C1Oc1ccc(C#N)c(Cl)c1 (stereo not shown) [Example 179, N-((1r,3r)-3-(3-chloro-4-cyanophenoxy)-2,2,4,4-tetramethylcyclobutyl)-6-(3-(7-(3-(2,6-dioxopiperidin-3-yl)-4-oxo-3,4-dihydrobenzo[d][1,2,3]triazin-7-yl)-2,7-diazaspiro[3.5]nonan-2-yl)prop-1-yn-1-yl)nicotinamide]",8%
6,"CC1(C)C(NC(=O)c2ccc(C#CCN3CC4(CCN(c5ccc6nnn(C7CCC(=O)NC7=O)c(=O)c6c5)CC4)C3)nc2)C(C)(C)C1Oc1ccc(C#N)c(Cl)c1 (stereo not shown) [Example 180, N-((1r,3r)-3-(3-chloro-4-cyanophenoxy)-2,2,4,4-tetramethylcyclobutyl)-6-(3-(7-(3-(2,6-dioxopiperidin-3-yl)-4-oxo-3,4-dihydrobenzo[d][1,2,3]triazin-6-yl)-2,7-diazaspiro[3.5]nonan-2-yl)prop-1-yn-1-yl)nicotinamide]",18%
7,"CC1(C)C(NC(=O)c2ccc(N3CCC(CCN4CCN(c5ccc6c(=O)n(C7CCC(=O)NC7=O)nnc6c5)CC4)CC3)nc2)C(C)(C)C1Oc1ccc(C#N)c(Cl)c1 (stereo not shown) [Example 197, N-((1r,3r)-3-(3-chloro-4-cyanophenoxy)-2,2,4,4-tetramethylcyclobutyl)-6-(4-(2-(4-(3-(2,6-dioxopiperidin-3-yl)-4-oxo-3,4-dihydrobenzo[d][1,2,3]triazin-7-yl)piperazin-1-yl)ethyl)piperidin-1-yl)nicotinamide]",16%
8,"CC1(C)[C@H](NC(=O)c2ccc(N3CCC(CN4CCC5(CC4)CN(c4ccc6c(=O)n(C7CCC(=O)NC7=O)nnc6c4)C5)CC3)nc2)C(C)(C)[C@H]1Oc1ccc(C#N)c(Cl)c1 (stereo partly shown) [Example 171, N-((1r,3r)-3-(3-chloro-4-cyanophenoxy)-2,2,4,4-tetramethylcyclobutyl)-6-(4-((2-(3-(2,6-dioxopiperidin-3-yl)-4-oxo-3,4-dihydrobenzo[d][1,2,3]triazin-7-yl)-2,7-diazaspiro[3.5]nonan-7-yl)methyl)piperidin-1-yl)nicotinamide]",11%
9,"N#Cc1ccc(OC2CCC(NC(=O)c3ccc(N4CCC(CN5CCN(c6ccc7c(=O)n(C8CCC(=O)NC8=O)nnc7c6)CC5)CC4)nc3)CC2)cc1Cl (stereo not shown) [Example 164, N-((1r,4r)-4-(3-chloro-4-cyanophenoxy)cyclohexyl)-6-(4-((4-(3-(2,6-dioxopiperidin-3-yl)-4-oxo-3,4-dihydrobenzo[d][1,2,3]triazin-7-yl)piperazin-1-yl)methyl)piperidin-1-yl)nicotinamide]",13%
10,"CC1(C)[C@H](NC(=O)c2ccc(N3CC[C@H](CN4CC5(CCN(c6ccc7c(=O)n(C8CCC(=O)NC8=O)nnc7c6)CC5)C4)C3)nc2)C(C)(C)[C@H]1Oc1ccc(C#N)c(Cl)c1 (stereo partly drawn) [Example 185, N-((1r,3R)-3-(3-chloro-4-cyanophenoxy)-2,2,4,4-tetramethylcyclobutyl)-6-((3R)-3-((7-(3-(2,6-dioxopiperidin-3-yl)-4-oxo-3,4-dihydrobenzo[d][1,2,3]triazin-7-yl)-2,7-diazaspiro[3.5]nonan-2-yl)methyl)pyrrolidin-1-yl)nicotinamide]",10%
11,"CC1(C)[C@H](NC(=O)c2ccc(C#CC3CCN(CC4CCN(c5ccc6c(=O)n(C7CCC(=O)NC7=O)nnc6c5)CC4)CC3)nc2)C(C)(C)[C@H]1Oc1ccc(C#N)c(Cl)c1 (stereo partly shown) [Example 195, N-((1r,3r)-3-(3-chloro-4-cyanophenoxy)-2,2,4,4-tetramethylcyclobutyl)-6-((1-((1-(3-(2,6-dioxopiperidin-3-yl)-4-oxo-3,4-dihydrobenzo[d][1,2,3]triazin-7-yl)piperidin-4-yl)methyl)piperidin-4-yl)ethynyl)nicotinamide]",3%
12,"CC1(C)C(NC(=O)c2ccc(C#CCN3CCN(c4ccc5nnn(C6CCC(=O)NC6=O)c(=O)c5c4)CC3)nc2)C(C)(C)C1Oc1ccc(C#N)c(Cl)c1 (stereo not shown) [Example 178, N-((1r,3r)-3-(3-chloro-4-cyanophenoxy)-2,2,4,4-tetramethylcyclobutyl)-6-(3-(4-(3-(2,6-dioxopiperidin-3-yl)-4-oxo-3,4-dihydrobenzo[d][1,2,3]triazin-6-yl)piperazin-1-yl)prop-1-yn-1-yl)nicotinamide]",23%
13,"CC1(C)C(NC(=O)c2ccc(C#CC3CCN(CC4CCN(c5ccc6nnn(C7CCC(=O)NC7=O)c(=O)c6c5)CC4)CC3)nc2)C(C)(C)C1Oc1ccc(C#N)c(Cl)c1 (stereo not shown) [Example 196, N-((1r,3r)-3-(3-chloro-4-cyanophenoxy)-2,2,4,4-tetramethylcyclobutyl)-6-((1-((1-(3-(2,6-dioxopiperidin-3-yl)-4-oxo-3,4-dihydrobenzo[d][1,2,3]triazin-6-yl)piperidin-4-yl)methyl)piperidin-4-yl)ethynyl)nicotinamide]",4%
